Where “and” joins values, the source holds several entries; their conditions need not be identical. Equal entries are not always repeated. Each block holds one compound with its values, some of them ahead of it.
Assay: photoluminescence quantum yield (fraction); solvent given as SMILES

- photoluminescence quantum yield (in ClC(Cl)Cl): 0.69
SMILES: Cc1ccc(CN(Cc2ccc(C)cc2)c2nc(C#N)c(N(Cc3ccc(C)cc3)Cc3ccc(C)cc3)nc2C#N)cc1

- photoluminescence quantum yield (in c1cc(-n2c3ccccc3c3ccccc32)cc(-n2c3ccccc3c3ccccc32)c1): 0.38
SMILES: c1ccc(-c2nc(-c3ccccc3)nc(-c3ccc(-c4ccc(N5c6ccccc6[Si](c6ccccc6)(c6ccccc6)c6ccccc65)cc4)cc3)n2)cc1

- photoluminescence quantum yield (in CC#N): 0.5
- photoluminescence quantum yield (in CCCCCC): 0.32
- photoluminescence quantum yield (in CO): 0.45
- photoluminescence quantum yield (in c1ccccc1): 0.46 and 0.534
SMILES: O=c1oc2c(ccc3ccccc32)nc1-c1ccccc1

- photoluminescence quantum yield (in C1CCCCC1): 0.38
- photoluminescence quantum yield (in CC#N): 0.52
- photoluminescence quantum yield (in CO): 0.3
- photoluminescence quantum yield (in ClC(Cl)Cl): 0.07
SMILES: NCc1ccc2ccc3cccc4ccc1c2c34

- photoluminescence quantum yield (in CC#N): 0.42
- photoluminescence quantum yield (in ClCCl): 0.46
SMILES: COc1ccc(-c2cc3c(s2)c(-c2ccccc2)cc(=O)n3C)cc1

- photoluminescence quantum yield (in C1CCCCC1): 0.98
- photoluminescence quantum yield (in CC#N): 0.013
- photoluminescence quantum yield (in CO): 0.011
- photoluminescence quantum yield (in ClC(Cl)Cl): 0.73
SMILES: CN(C)c1ccc(-c2ccc(-c3nc(C#N)c(C#N)n3C)cc2)cc1

- photoluminescence quantum yield (in ClCCl): 0.34
SMILES: COC(=O)/C=C/C1=CC2=C(c3c(C)cc(C)cc3C)c3cccn3[B-](F)(F)[N+]2=C1

- photoluminescence quantum yield (in ClCCl): 0.485
SMILES: Cc1cc2oc3ccccc3c2c2[nH]c3ccccc3c12

- photoluminescence quantum yield (in ClC(Cl)Cl): 0.161
SMILES: CCC[Si](CCC)(CCC)c1cc2ccc3cccc4ccc(c1C(=O)NC(C)(C)C)c2c34

- photoluminescence quantum yield (in CCO): 0.23
SMILES: CN(C)c1ccc(-c2ccc(C#N)s2)s1

- photoluminescence quantum yield (in ClCCl): 0.058
SMILES: Cc1cc2c3ccccc3sc2c2[nH]c3ccccc3c12

- photoluminescence quantum yield (in ClCCl): 0.176
SMILES: C(S/C=C/c1ccc(-c2ccc(/C=C/SC=C3CCCCCC3)cc2)cc1)=C1CCCCCC1

- photoluminescence quantum yield (in CS(C)=O): 0.2
SMILES: c1csc(-c2nc3ccccc3c3cc4ccccn4c23)c1

- photoluminescence quantum yield (in ClCCl): 0.39
SMILES: COc1ccc(C2=Nc3cccc4[n+]3[B-](F)(O2)OC(c2ccc(OC)cc2)=N4)cc1

- photoluminescence quantum yield (in CC#N): 0.52
- photoluminescence quantum yield (in CO): 0.15
- photoluminescence quantum yield (in ClCCl): 0.6
SMILES: Cc1cccc(-c2[nH]c(=O)n3c2-c2ccccc2C3=O)c1O

- photoluminescence quantum yield (in CC#N): 0.24
SMILES: c1ccc(-c2nc(-c3ccc(-c4cccs4)s3)[nH]c2-c2ccccc2)cc1

- photoluminescence quantum yield (in CCO): 0.06
- photoluminescence quantum yield (in CO): 0.07
- photoluminescence quantum yield (in CS(C)=O): 0.24
SMILES: CN1/C(=C/C=C(/C=C/c2sc3ccccc3[n+]2C)c2ccccc2)Sc2ccccc21

- photoluminescence quantum yield (in CC#N): 0.56
- photoluminescence quantum yield (in CO): 0.55
- photoluminescence quantum yield (in O): 0.62
SMILES: CNCCCC1c2ccccc2C=Cc2ccccc21

- photoluminescence quantum yield (in CC#N): 0.929
SMILES: COc1ccc(-n2nc(C#N)c(N3CCCCC3)n2)cc1

Further lines, the compound ahead of its results:

SMILES: CCCN1C(=O)C(=CC=CC=C2Oc3ccccc3N2CCCS(=O)(=O)[O-])C(=O)N(CCC)C1=S
- photoluminescence quantum yield (in CC(C)=O): 0.41
- photoluminescence quantum yield (in CCCCO): 0.37
- photoluminescence quantum yield (in CCO): 0.25
- photoluminescence quantum yield (in CO): 0.17
- photoluminescence quantum yield (in ClC(Cl)Cl): 0.32
- photoluminescence quantum yield (in O): 0.04

SMILES: CCCCCCC(CCCCCC)N1C(=O)c2cccc3c(-c4ccc(-c5ccc(OC)cc5)cc4)ccc(c23)C1=O
- photoluminescence quantum yield (in CCCCCC): 0.5
- photoluminescence quantum yield (in CCCCCCCCCCCCCC): 0.5
- photoluminescence quantum yield (in CCCCCCCCCCCO): 0.56
- photoluminescence quantum yield (in CCCCO): 0.16
- photoluminescence quantum yield (in CN(C)C=O): 0.15
- photoluminescence quantum yield (in Cc1ccccc1): 0.4
- photoluminescence quantum yield (in ClC(Cl)Cl): 0.67

SMILES: CCC(CC)n1c2ccccc2c2cc3c(cc21)c1ccccc1n3C(CC)CC
- photoluminescence quantum yield (in ClC(Cl)Cl): 0.16

SMILES: CCC1(CC)c2ccccc2-c2ccc(C#Cc3cc(C#Cc4ccc5c(c4)C(CC)(CC)c4ccccc4-5)c4ccc5c(C#Cc6ccc7c(c6)C(CC)(CC)c6ccccc6-7)cc(C#Cc6ccc7c(c6)C(CC)(CC)c6ccccc6-7)c6ccc3c4c65)cc21
- photoluminescence quantum yield (in Cc1ccccc1): 0.64

SMILES: CC(C)=CCN1C(=O)c2cccc3c2c(cc2nc(C)oc23)C1=O
- photoluminescence quantum yield (in CCO): 0.011

SMILES: Cc1cc(C)c(C2=C(c3c(C)sc(-c4ccc(-c5nc(-c6ccccc6)c(-c6ccccc6)[nH]5)cc4)c3C)C(F)(F)C(F)(F)C2(F)F)s1
- photoluminescence quantum yield (in C1CCOC1): 0.091

SMILES: CC1(C)c2ccccc2N(c2ccc(-c3ccc4c(c3)C(=O)c3ccc(-c5ccc(N6c7ccccc7C(C)(C)c7ccccc76)cc5)cc3C4=O)cc2)c2ccccc21
- photoluminescence quantum yield (in Cc1ccccc1): 0.17
- photoluminescence quantum yield (in c1ccc2c(c1)c1ccccc1n2-c1ccc(-c2ccc(-n3c4ccccc4c4ccccc43)cc2)cc1): 0.5

SMILES: O=C1c2cccc3c(NCc4ccccn4)c4ccccc4c(c23)C(=O)N1Cc1ccccn1
- photoluminescence quantum yield (in C1CCOC1): 0.07
- photoluminescence quantum yield (in CCCCCC): 0.04
- photoluminescence quantum yield (in CCO): 0.07
- photoluminescence quantum yield (in Cc1ccccc1): 0.08
- photoluminescence quantum yield (in ClCCl): 0.1

SMILES: [O-]c1ccccc1-c1[nH+]c2c3cccnc3c3ncccc3c2n1-c1ccccc1
- photoluminescence quantum yield (in Cc1ccccc1): 0.125

SMILES: CCN(CC)c1ccc2c(c1)oc(=O)c1c(=O)oc3cc(Br)ccc3c12
- photoluminescence quantum yield (in CS(C)=O): 0.25
- photoluminescence quantum yield (in ClCCl): 0.9

SMILES: Cc1cc(C)c(B(c2ccc(-c3ccc(-c4nc5c6ccccc6c6ccccc6c5[nH]4)cc3)cc2)c2c(C)cc(C)cc2C)c(C)c1
- photoluminescence quantum yield (in C1CCOC1): 0.74
- photoluminescence quantum yield (in CC(C)=O): 0.56
- photoluminescence quantum yield (in CS(C)=O): 0.49
- photoluminescence quantum yield (in Cc1ccccc1): 0.68
- photoluminescence quantum yield (in ClCCl): 0.59

SMILES: c1ccc(C(=C(c2ccccc2)c2ccc(-c3nc4c(-c5ccc(C(=C(c6ccccc6)c6ccccc6)c6ccccc6)cc5)sc(-c5ccc(C(=C(c6ccccc6)c6ccccc6)c6ccccc6)cc5)c4nc3-c3ccc(C(=C(c4ccccc4)c4ccccc4)c4ccccc4)cc3)cc2)c2ccccc2)cc1
- photoluminescence quantum yield (in Cc1ccccc1): 0.267
- photoluminescence quantum yield (in ClCCl): 0.109

SMILES: CC(C)(C)c1ccc(C2=C(c3ccc(-n4c5ccc(C(C)(C)C)cc5c5cc(C(C)(C)C)ccc54)cc3)S(=O)(=O)c3c2sc(-c2ccc(-n4c5ccc(C(C)(C)C)cc5c5cc(C(C)(C)C)ccc54)cc2)c3-c2ccc(C(C)(C)C)cc2)cc1
- photoluminescence quantum yield (in C1CCOC1): 0.164

SMILES: CC[N+](CC)=c1ccc2cc3c(oc-2c1)-c1ccc(N(C)C)cc1CC3
- photoluminescence quantum yield (in CCO): 0.618
- photoluminescence quantum yield (in ClCCl): 0.724
- photoluminescence quantum yield (in O): 0.282

SMILES: COc1ccc2c3c(c4ccc(OC)cc4c2c1)C1(c2ccccc2-c2ccccc21)c1ccccc1-3
- photoluminescence quantum yield (in C1CCCCC1): 0.21

SMILES: CC[N+]1(CC)CN2C(=N1)C(C(=O)O)=Cc1cc(Oc3ccccc3)ccc12
- photoluminescence quantum yield (in O): 0.592

SMILES: CCC1(CC)c2cc(/C=C/c3ccc(/C=C/c4ccc5c(c4)C(CC)(CC)c4cc(N6c7ccccc7Sc7ccccc76)ccc4-5)cc3)ccc2-c2ccc(N3c4ccccc4Sc4ccccc43)cc21
- photoluminescence quantum yield (in C1CCOC1): 0.33
- photoluminescence quantum yield (in CC#N): 0.26
- photoluminescence quantum yield (in CCCCCC): 0.72
- photoluminescence quantum yield (in Cc1ccccc1): 0.58
- photoluminescence quantum yield (in ClCCl): 0.33

SMILES: COc1ccc2c(c1)c1ccccc1n2-c1nc2ccccc2nc1-n1c2ccccc2c2cc(OC)ccc21
- photoluminescence quantum yield (in Cc1ccccc1): 0.13

SMILES: CC1=CC(C)=[N+]2C1=C(c1ccc(-c3ccc(OS(=O)(=O)c4ccc([N+](=O)[O-])cc4[N+](=O)[O-])cc3)s1)c1c(C)cc(C)n1[B-]2(F)F
- photoluminescence quantum yield (in Cc1ccccc1): 0.066

SMILES: Cc1cc(N(C)C)cc(C)c1/C=C/C=C/c1ccc(C#N)cc1
- photoluminescence quantum yield (in C1CCOC1): 0.087
- photoluminescence quantum yield (in CC#N): 0.212
- photoluminescence quantum yield (in CCCCCC): 0.043
- photoluminescence quantum yield (in CCCCOCCCC): 0.061
- photoluminescence quantum yield (in CCO): 0.168
- photoluminescence quantum yield (in CCOCC): 0.082

SMILES: N#Cc1c(-n2c3ccccc3c3cc(Br)ccc32)c(C#N)c(-n2c3ccccc3c3cc(Br)ccc32)c(-n2c3ccccc3c3cc(Br)ccc32)c1-n1c2ccccc2c2cc(Br)ccc21
- photoluminescence quantum yield (in Cc1ccccc1): 0.85

SMILES: CC1=CC(/C=C/c2ccc([N+](C)(C)C)cc2)=[N+]2C1=C(c1ccc(I)cc1)c1c(C)cc(/C=C/c3ccc([N+](C)(C)C)cc3)n1[B-]2(F)F
- photoluminescence quantum yield (in CC#N): 0.69
